Data published in US8906925B2, “Pyrido[4,3-B]indoles containing rigid moieties” (Medivation Technologies, Inc., priority 2008, dated 2014).

Legend:
[1] = target: T1, human dopamine D2L receptor (Homo sapiens, UniProt P14416); assay: Aequorin functional assay, dopamine D2L (CHO-K1); format: cell-based; design: host or cells: CHO-K1 co-expressing mitochondrial apoaequorin and Gα16; conditions: for inhibition at 0.005 µM / inhibition at […] / inhibition at 0.05 µM / inhibition at 0.5 µM / inhibition at 5 µM / inhibition at 15 µM: CHO-K1; for inhibition at 0.005 µM: Antagonist concentration 5 nM; for inhibition at 0.05 µM: Antagonist concentration 50 nM; for inhibition at 0.5 µM: Antagonist concentration 500 nM; for inhibition at 5 µM: Antagonist concentration 5000 nM; for inhibition at 15 µM: Antagonist concentration 15000 nM
Source text: (§1) To study the functional activity of compounds of the invention on the human recombinant dopamine D2L with Aequorin, GTPγS and cAMP functional assays and on the human recombinant serotonin 5-HT2A receptor with Aequorin, CHO-K1 cell lines expressing D2L or 5-HT2A recombinant receptor, mitochondrial apoaequorin and Gα16 were used for the Aequorin assay. CHO-K1 cell line expressing the recombinant D2L receptor was used for the cAMP assay and was amplified to prepare membranes used for the GTPγS assay.
Cells were incubated at room temperature for at least 4 h with Coelenterazine h (Molecular Probes). Dose response curves with reference compounds were performed before testing the compounds of the invention. D2L reference agonist and antagonist were quinpirol (Tocris, 1061) and haloperidol (Tocris, 0931), respectively. […] For agonist testing, 50 μL of cell suspension were injected on 50 μL of test compound or reference agonist plated in a 96-well plate. The resulting emission of light was recorded using the Hamamatsu Functional Drug Screening System 6000 (FDSS 6000). Following an incubation of 15 min after the first injection, 100 μL of reference agonist at a concentration corresponding to its EC80 was injected on the 100 μL of the mixture of cell suspension and test compound, for antagonist testing. The resulting emission of light was recorded using the same luminometer as for agonist testing. To standardize the emission of recorded light (determination of the “100% signal”) across plates and across different experiments, some of the wells contained 100 μM digitonin or a saturating concentration of ATP (20 μM). Plates also contained the reference agonist at a concentration equivalent to the EC100 and EC80 obtained during the test validation.

[2] = target: T1, human dopamine D2L receptor; assay: GTPγS functional assay, dopamine D2L (CHO-K1 membrane extracts); format: biochemical; design: host or cells: CHO-K1 co-expressing mitochondrial apoaequorin and Gα16; conditions: for inhibition at 0.005 µM: antagonist concentration 5 nM; for inhibition at 0.05 µM: antagonist concentration 50 nM; for inhibition at 0.5 µM: antagonist concentration 500 nM; for inhibition at 5 µM: antagonist concentration 5000 nM; for inhibition at 15 µM: antagonist concentration 15000 nM
Source text: as §1
GTPγS Assay Procedure: Assay buffer [20 mM HEPES pH 7.4; 100 mM NaCl, 10 μg/mL saponin, 30 mM MgCl2]; Membranes [Recombinant CHO-K1-D2L membrane extracts thawed on ice and diluted in assay buffer to give 1 mg/mL (10 μg/10 μL) and kept on ice]; GDP [diluted in assay buffer to give […] final concentration]; Beads [PVT-WGA (Amersham, RPNQ0001), diluted in assay buffer at 25 mg/mL (0.25 mg/10 μL)]; GTPγ35S [(PerkinElmer NEG030X), diluted in assay buffer to give 0.1 nM final concentration]; Ligand [Quinpirol (Tocris, 1061) as reference agonist and haloperidol (Tocris, 0931) as reference antagonist, diluted in assay buffer]. Membranes were mixed with GDP (volume:volume) and incubated for at least 15 min on ice. In parallel, GTPγ[^35S] was mixed with the beads (volume:volume) just before starting the reaction. For agonist testing, the following reagents are successively added in the wells of an Optiplate (Perkin Elmer): 50 μL of test or reference ligand, 20 μL of the membranes:GDP mix, 10 μL of assay buffer and 20 μL of the GTPγ[^35S]:beads mix. For antagonist testing, the following reagents were successively added in the wells of an Optiplate (Perkin Elmer): 50 μL of test or reference ligand, 20 μL of the membranes:GDP mix, and then after an incubation of 15 min at room temperature, 10 μL of reference agonist at historical EC80 concentration and 20 μL of the GTPγ[^35S]:beads mix. The plates were covered with a top seal, mixed on an orbital shaker for 2 min, and then incubated for 1 h at room temperature. Then the plates were centrifuged for 10 min at 2000 rpm, incubated at room temperature 1 h and counted for 1 min/well with a Perkin Elmer TopCount reader. Compounds were tested for antagonist activity at the human dopamine D2L receptor (FAST-0101G) at the following nanomolar concentrations, in duplicate: Antagonist (nM): 5, 15, 50, 150, 500, 1500, 5000, 15000.

[3] = Antagonist concentration 150 nM
[4] = Antagonist concentration 1500 nM
[5] = antagonist concentration 150 nM
[6] = antagonist concentration 1500 nM

T1 sequence (P14416 whole entry): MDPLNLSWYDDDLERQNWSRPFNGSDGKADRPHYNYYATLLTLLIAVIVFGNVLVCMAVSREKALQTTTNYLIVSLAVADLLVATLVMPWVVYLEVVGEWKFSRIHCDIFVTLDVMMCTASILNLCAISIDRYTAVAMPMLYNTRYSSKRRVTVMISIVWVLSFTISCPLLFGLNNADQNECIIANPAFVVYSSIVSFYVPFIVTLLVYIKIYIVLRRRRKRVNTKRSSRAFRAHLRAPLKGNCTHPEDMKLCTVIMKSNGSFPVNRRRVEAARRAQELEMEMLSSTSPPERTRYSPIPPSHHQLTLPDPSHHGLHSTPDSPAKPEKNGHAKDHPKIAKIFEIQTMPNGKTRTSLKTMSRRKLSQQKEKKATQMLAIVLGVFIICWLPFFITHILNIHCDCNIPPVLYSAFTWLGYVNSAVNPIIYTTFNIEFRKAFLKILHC

Row | Compound | D2L Agonist % Activation (Aequorin) ([1]; Agonist concentration 10 nM) | D2L Agonist % Activation (Aequorin) ([1]; Agonist concentration 30 nM) | D2L Agonist % Activation (Aequorin) ([1]; Agonist concentration 100 nM) | D2L Agonist % Activation (Aequorin) ([1]; Agonist concentration 300 nM) | D2L Agonist % Activation (Aequorin) ([1]; Agonist concentration 1000 nM) | D2L Agonist % Activation (Aequorin) ([1]; Agonist concentration 3000 nM) | D2L Agonist % Activation (Aequorin) ([1]; Agonist concentration 10000 nM) | D2L Agonist % Activation (Aequorin) ([1]; Agonist concentration 30000 nM) | inhibition at 0.005 µM [1] | inhibition at […] ([1]; Antagonist concentration 15 nM) | inhibition at 0.05 µM [1] | inhibition at […] [1, 3] | inhibition at 0.5 µM [1] | inhibition at […] [1, 4] | inhibition at 5 µM [1] | inhibition at 15 µM [1] | inhibition at 0.005 µM [2] | inhibition at […] ([2]; antagonist concentration 15 nM) | inhibition at 0.05 µM [2] | inhibition at […] [2, 5] | also measured
1 | C/C(=C\n1c2c(c3cc(Cl)ccc31)CN(C)CC2)c1ccc(F)cc1 [Compound 83, (E)-8-chloro-5-(2-(4-fluorophenyl)prop-1-enyl)-2,3,4,5-tetrahydro-2-methyl-1H-pyrido[4,3-b]indole] | 2.43% | 0.68% | 1.26% | 0.92% | −0.12% | 0.00% | 6.32% | 84.25% | 93.5% | 96.4% | 96.8% | 96.8% | 96.8% | 96% | 96% | 92.3% | 51.8% | 90% | 104% | 109% | inhibition at 0.5 µM [2]: 118%; inhibition at […] [2, 6]: 113%; inhibition at 5 µM [2]: 111%; inhibition at 15 µM [2]: 105%
2 | C/C(=C\n1c2c(c3cc(Cl)ccc31)CN(C)CC2)c1ccncc1 [Compound 90, (E)-8-chloro-2,3,4,5-tetrahydro-2-methyl-5-(2-(pyridin-4-yl)prop-1-enyl)-1H-pyrido[4,3-b]indole] | 0.95% | 0.25% | −0.23% | −0.24% | −0.48% | −1.20% | −0.78% | −0.92% | 95.5% | 97.3% | 93.5% | 96.8% | 97.9% | 97.2% | 97.4% | 96.1% | 59% | 101% | 106% | 109% | inhibition at 0.5 µM [2]: 109%; inhibition at […] [2, 6]: 116%; inhibition at 5 µM [2]: 112%; inhibition at 15 µM [2]: 116%
